Data on 25 compounds can be found in patent EP2857388A1, “Azoles containing sulfone” (Grünenthal GmbH, priority 2013, dated 2015).

The structures appear in SMILES notation.

The target of this assay is T1, human B1R (Homo sapiens, UniProt P46663).
T1 construct: expressed in transfected cells; host or cells: CHO K1 cells (Chinese Hamster Ovary), stably transfected
T1 sequence (P46663 1-353): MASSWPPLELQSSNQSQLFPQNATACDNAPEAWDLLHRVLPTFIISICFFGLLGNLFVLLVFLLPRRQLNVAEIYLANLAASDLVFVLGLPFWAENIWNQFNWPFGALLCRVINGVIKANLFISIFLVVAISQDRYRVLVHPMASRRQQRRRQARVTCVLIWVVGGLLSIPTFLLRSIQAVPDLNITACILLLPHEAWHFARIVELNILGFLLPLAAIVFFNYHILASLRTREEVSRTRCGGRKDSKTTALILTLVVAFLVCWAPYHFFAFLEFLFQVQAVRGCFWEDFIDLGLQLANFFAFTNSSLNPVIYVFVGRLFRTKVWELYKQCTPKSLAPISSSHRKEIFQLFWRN
Put plainly: Functional assay at bradykinin receptor 1 (B1R): Ca2+ fluorescence (Fluo-4) in FLIPR/Novostar, antagonist mode. In kind it is cell-based. The following applies: test substance 10 µM; CHO K1 cells stably transfected with human B1R gene (hB1R-Zellen); agonist Lys-Des-Arg9-Bradykinin at EC80; % inhibition relative to maximal achievable inhibition; read-out: % Inhibierung (human B1R) bei 10 µM. In a few lines: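 Antagonism read as suppression of the Ca2+ rise in Fluo-4-loaded, hB1R-transfected CHO K1 cells when Lys-Des-Arg9-bradykinin (EC80) follows a 6–20 min compound preincubation. Maximal fluorescence counts, measured on FLIPR or Novostar, yield % inhibition relative to maximum; IC50 values come from concentration series run in duplicate or triplicate.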
`COc1cc(C)c(S(=O)(=O)Cc2noc(C(=O)NC3CCC(N4CCN(C)CC4)CC3(C)C)n2)c(C)c1` (stereo not shown) [SC-16, N-[2,2-Dimethyl-4-(4-methyl-piperazin-1-yl)-cyclohexyl]-3-[[(4-methoxy-2,6-dimethyl-phenyl)-sulfonyl]-methyl]-[1,2,4]oxadiazol-5-carbonsäure amid]: the inhibition at 10 µM came to 99%.
Turning to `COc1cc(C)c(S(=O)(=O)Cc2cc(C)n(CC(=O)NC3CCC(N4CCCC4)CC3)n2)c(C)c1` (stereo not shown) [CC-156, 2-[3-[[(4-Methoxy-2,6-dimethyl-phenyl)sulfonyl]-methyl]-5-methyl-1H-pyrazol-1-yl]-N-(4-pyrrolidin-1-yl-cyclohexyl)-acetamid], the inhibition at 10 µM amounted to 98%.
Consider `Cc1cccc(Cl)c1S(=O)(=O)Cc1noc(C(=O)N2CCC3(CC2)CCN(c2ccncc2)CC3)n1` [CC-148, [3-[[(2-Chlor-6-methyl-phenyl)sulfonyl]-methyl]-[1,2,4]oxadiazol-5-yl]-(9-pyridin-4-yl-3,9-diazaspiro[5.5]undecan-3-yl)-methanon], for which the inhibition at 10 µM is 100%.
Take `Cc1cc(S(=O)(=O)Cc2noc(C(=O)N3CCC4(CC3)CCN(c3ccncc3)CC4)n2)c(C)cc1Cl` [CC-146, [3-[[(4-Chlor-2,5-dimethyl-phenyl)sulfonyl]-methyl]-[1,2,4]oxadiazol-5-yl]-(9-pyridin-4-yl-3,9-diazaspiro[5.5]undecan-3-yl)-methanon]: the inhibition at 10 µM came to 100%.
As for `Cc1cc(S(=O)(=O)Cc2noc(C(=O)NC3CCNCC3(C)C)n2)c(C)cc1Cl` (stereo not shown) [CC-24, 3-[[(4-Chlor-2,5-dimethyl-phenyl)sulfonyl]-methyl]-N-(3,3-dimethyl-piperidin-4-yl)-[1,2,4]oxadiazol-5-carbonsäure amid], the inhibition at 10 µM worked out at 86%.
Regarding `COc1cc(C)c(S(=O)(=O)Cc2noc(C(=O)N3CC4(CCN(c5ccncc5)CC4)C3)n2)c(C)c1` [SC-02, [3-[[(4-Methoxy-2,6-dimethyl-phenyl)sulfonyl]-methyl]-[1,2,4]oxadiazol-5-yl]-(7-pyridin-4-yl-2,7-diazaspiro[3.5]nonan-2-yl)-methanon], the inhibition at 10 µM came to 100%.
With `COc1cc(C)c(S(=O)(=O)Cc2noc(CC(=O)N(C)C3CCN(C(=O)CCN4CCCCC4)CC3)n2)c(C)c1` [SC-46, 2-[3-[[(4-Methoxy-2,6-dimethyl-phenyl)sulfonyl]-methyl]-[1,2,4]oxadiazol-5-yl]-N-methyl-N-[1-(3-piperidin-1-yl-propanoyl)-piperidin-4-yl]-acetamid] the figure was 100%; with `COc1cc(C)c(S(=O)(=O)Cc2cn(CC(=O)N(C3CCC(N(C)C)CC3)C3CC3)nn2)c(C)c1` (stereo not shown) [CC-186, N-Cyclopropyl-N-(4-dimethylamino-cyclohexyl)-2-[4-[[(4-methoxy-2,6-dimethyl-phenyl)sulfonyl]-methyl]-1H-[1,2,3]triazol-1-yl]-acetamid], 100%.
As to `COc1cc(C)c(S(=O)(=O)Cc2noc(CC(=O)N(C)C3CCN(Cc4ccnc(N5CCCC5)c4)CC3)n2)c(C)c1` [SC-57, 2-[3-[[(4-Methoxy-2,6-dimethyl-phenyl)sulfonyl]-methyl]-[1,2,4]oxadiazol-5-yl]-N-methyl-N-[1-[(2-pyrrolidin-1-yl-pyridin-4-yl)-methyl]-piperidin-4-yl]-acetamid], the inhibition at 10 µM was 100%.
For `COc1cc(C)c(S(=O)(=O)Cc2noc(C(=O)N[C@H]3CCC[C@@H](N4CCN(C)CC4)C3)n2)c(C)c1` [CC-01, 3-[[(4-Methoxy-2,6-dimethyl-phenyl)sulfonyl]-methyl]-N-[(1S,3R)-3-(4-methyl-piperazin-1-yl)-cyclohexyl]-[1,2,4]oxadiazol-5-carbonsäure amid], the inhibition at 10 µM was 100%.
Turning to `COc1cc(C)c(S(=O)(=O)Cc2noc(C(=O)N3CCN(c4ccncc4)CC3)n2)c(C)c1` [CC-136, [3-[[(4-Methoxy-2,6-dimethyl-phenyl)sulfonyl]-methyl]-[1,2,4]oxadiazol-5-yl]-(4-pyridin-4-yl-piperazin-1-yl)-methanon], the inhibition at 10 µM is 100%.
Take `COc1cc(C)c(S(=O)(=O)Cc2noc(CC(=O)N3[C@@H]4CC[C@H]3CC(Oc3ccncc3)C4)n2)c(C)c1` (stereo partly drawn) [CC-135, 2-[3-[[(4-Methoxy-2,6-dimethyl-phenyl)sulfonyl]-methyl]-[1,2,4]oxadiazol-5-yl]-1-[(1S, 5R)-3-pyridin-4-yloxy-8-azabicyclo[3.2.1]octan-8-yl]-ethanon]: the inhibition at 10 µM stood at 98%.
As for `COc1cc(C)c(S(=O)(=O)Cc2noc(CC(=O)N3CCC(Cc4ccncc4)CC3(C)C)n2)c(C)c1` (stereo not shown) [CC-153, 1-[2,2-Dimethyl-4-(pyridin-4-yl-methyl)-piperidin-1-yl]-2-[3-[[(4-methoxy-2,6-dimethyl-phenyl)-sulfonyl]-methyl]-[1,2,4]oxadiazol-5-yl]-ethanon], the inhibition at 10 µM stood at 92%.
Consider `Cc1cc(S(=O)(=O)Cc2noc(CC(=O)NC3CCC(N4CCN(C)CC4)CC3(C)C)n2)c(C)cc1Cl` (stereo not shown) [CC-45, 2-[3-[[(4-Chlor-2,5-dimethyl-phenyl)sulfonyl]-methyl]-[1,2,4]oxadiazol-5-yl]-N-[2,2-dimethyl-4-(4-methyl-piperazin-1-yl)-cyclohexyl]-acetamid], for which the inhibition at 10 µM amounted to 100%.
With `COc1cc(C)c(S(=O)(=O)Cc2cn(CC(=O)NC3CCC(N4CCCC4)CC3)nn2)c(C)c1` (stereo not shown) [CC-167, 2-[4-[[(4-Methoxy-2,6-dimethyl-phenyl)sulfonyl]-methyl]-1H-[1,2,3]triazol-1-yl]-N-(4-pyrrolidin-1-yl-cyclohexyl)-acetamid], the inhibition at 10 µM was determined as 100%.
As for `COc1cc(C)c(S(=O)(=O)Cc2noc(CC(=O)NC3CCN(c4ccncc4)CC3(C)C)n2)c(C)c1` (stereo not shown) [SC-14, N-(3,3-Dimethyl-1-pyridin-4-yl-piperidin-4-yl)-2-[3-[[(4-methoxy-2,6-dimethyl-phenyl)sulfonyl]-methyl]-[1,2,4]oxadiazol-5-yl]-acetamid], the figure is 100%; as for `COCCN1CCC(NC(=O)Cc2nnc(CS(=O)(=O)c3c(C)cc(OC)cc3C)o2)C(C)(C)C1` (stereo not shown) [CC-31, 2-[5-[[(4-Methoxy-2,6-dimethyl-phenyl)sulfonyl]-methyl]-[1,3,4]oxadiazol-2-yl]-N-[1-(2-methoxy-ethyl)-3,3-dimethyl-piperidin-4-yl]-acetamid], 100%.
`COc1cc(C)c(S(=O)(=O)Cc2noc(CC(=O)NC3CCNCC3(C)C)n2)c(C)c1` (stereo not shown) [CC-18, N-(3,3-Dimethyl-piperidin-4-yl)-2-[3-[[(4-methoxy-2,6-dimethyl-phenyl)sulfonyl]-methyl]-[1,2,4]oxadiazol-5-yl]-acetamid]: the inhibition at 10 µM came to 100%.
With `COc1cc(C)c(S(=O)(=O)Cc2nc(CC(=O)NC3CCC(NC4CC4)CC3(C)C)no2)c(C)c1` (stereo not shown) [CC-35, N-[4-(Cyclopropylamino)-2,2-dimethyl-cyclohexyl]-2-[5-[[(4-methoxy-2,6-dimethyl-phenyl)sulfonyl]-methyl]-[1,2,4]oxadiazol-3-yl]-acetamid], the inhibition at 10 µM was 100%.
Regarding `Cc1cccc(Cl)c1S(=O)(=O)Cc1noc(CC(=O)N(C)[C@H]2CCC[C@@H](N3CCN(C)CC3)C2)n1` [SC-50, 2-[3-[[(2-Chlor-6-methyl-phenyl)sulfonyl]-methyl]-[1,2,4]oxadiazol-5-yl]-N-methyl-N-[(1S,3R)-3-(4-methyl-piperazin-1-yl)-cyclohexyl]-acetamid], the inhibition at 10 µM was 89%.
As to `COc1cc(C)c(S(=O)(=O)Cc2noc(CC(=O)N3CCN(Cc4ccnc(N5CCCC5)c4)CC3)n2)c(C)c1` [SC-52, 2-[3-[[(4-Methoxy-2,6-dimethyl-phenyl)sulfonyl]-methyl]-[1,2,4]oxadiazol-5-yl]-1-[4-[(2-pyrrolidin-1-yl-pyridin-4-yl)-methyl]-piperazin-1-yl]-ethanon], the inhibition at 10 µM stood at 100%.
Turning to `COc1cc(C)c(S(=O)(=O)Cc2noc(C(=O)NC3CCC(Cc4ccncc4)CC3)n2)c(C)c1` (stereo not shown) [SC-19, 3-[[(4-Methoxy-2,6-dimethyl-phenyl)sulfonyl]-methyl]-N-[4-(pyridin-4-yl-methyl)-cyclohexyl]-[1,2,4]oxadiazol-5-carbonsäure amid], the inhibition at 10 µM stood at 99%.
With `COc1cc(C)c(S(=O)(=O)Cc2nnc(CC(=O)NC3CCC(N4CCCC4)CC3(C)C)o2)c(C)c1` (stereo not shown) [CC-29, N-(2,2-Dimethyl-4-pyrrolidin-1-yl-cyclohexyl)-2-[5-[[(4-methoxy-2,6-dimethyl-phenyl)sulfonyl]-methyl]-[1,3,4]oxadiazol-2-yl]-acetamid], the inhibition at 10 µM was determined as 100%.
With `COc1cc(C)c(S(=O)(=O)Cc2noc(C(=O)NC3CCN(c4ccc(C(F)(F)F)cn4)C3)n2)c(C)c1` (stereo not shown) [SC-06, 3-[[(4-Methoxy-2,6-dimethyl-phenyl)sulfonyl]-methyl]-N-[1-[5-(trifluormethyl)-pyridin-2-yl]-pyrrolidin-3-yl]-[1,2,4]oxadiazol-5-carbonsäure amid] the figure was 94%; with `COc1cc(C)c(S(=O)(=O)Cc2noc(C(=O)N3CCN(Cc4ccc(N5CCCC5)nc4)CC3)n2)c(C)c1` [SC-61, [3-[[(4-Methoxy-2,6-dimethyl-phenyl)sulfonyl]-methyl]-[1,2,4]oxadiazol-5-yl]-[4-[(6-pyrrolidin-1-yl-pyridin-3-yl)-methyl]-piperazin-1-yl]-methanon], 100%.
